Entries after “also recorded” stand apart in the source; their conditions may differ.
Key:
spinach thylakoids = test: In vitro effect of artemisinin on FeCN supported O2 evolution (electron transport) of isolated thylakoids; format: biochemical, spinach (Beta palonga); details: for artemisinin-mediated inhibition of electron transport: 744 µM
Protocol: Thylakoids were isolated from spinach and rice leaves following with some modifications. Leaves were homogenized in cold grinding buffer [50 mM tricine-NaOH (pH 7.5), 400 mM sucrose, 5 mM MgCl2 and 5 mM KCl]. The homogenate was filtered through Miracloth and the filtrate was centrifuged at 5000×g for 5 min. The chloroplast pellet was washed in 5 mM tricine-NaOH (pH 7.5) buffer containing, 400 mM sucrose and 2 mM MgCl2 and centrifuged at 300×g for 1 min. The supernatant was re-centrifuged at 5000×g for 5 min. The pellet (thylakoids) was finally taken up in a minimal volume of suspending buffer [20 mM tricine-NaOH (pH 7.5), 100 mM sucrose and 5 mM MgCl2]. Chlorophyll concentration in methanolic extract was measured spectrophotometrically.
Photosystem II, PSI and whole chain (PSII plus PSI) catalyzed electron transport activities were measured as oxygen (O2) evolution or uptake in a Clarke type O2 electrode assembly (Hansatech) at 22±1°C using site-specific artificial electron acceptors, donors, and inhibitors, [26]. The light was rate-saturating (500 µE m^−2 s^−1). Phosphorylating electron transport was measured with addition of 1 mM ADP and 5 mM K2HPO4 (iP) to basal electron transport components (25 mM hepes-NaOH (pH-7.5), 100 mM sucrose, 5 mM MgCl2 and 20 µg Chl. ml^−1). NH4Cl and GS were used at a final concentration of 5 mM and 10 µM respectively as and when required. The whole chain electron flow was assayed in presence of 2 mM FeCN as terminal electron acceptor of PSI. pBQ and DQ (400 µM) were used to measure PSII catalyzed electron flow. To measure PSI catalyzed electron flow, DCIPH2 (1 mM DCIP plus 2 mM ascorbate) was used as electron donor to cytochrome b6/f region and 1 mM MV as transient electron acceptor. The PSI reaction mixture additionally contained 2 mM sodium azide (catalase inhibitor) and 10 µM DCMU (PSII inhibitor).

rice leaves [1] = test: Fast Chl. a (O-J-I-P) fluorescence transient in leaves of artemisinin sprayed plants; format: in vivo, Rice (Oryza sativa var. Safari)
Protocol: (§1) Twenty one day old rice plants were sprayed with artemisinin twice at a 24 h interval. One mililiter of 74.4 mM artemisinin in 1% (V/V) DMSO, 0.1% (V/V) TWEEN-20 was diluted 100 fold with water and used to treat 40 plants (∼1.86 µmol of artemisinin/plant). Control plants were sprayed with the same solution without artemisinin. The 4th (quaternary) leaf was harvested 20 h after the 2nd spray and used for all experiments. The individual effect of the surfactant and DMSO-plus-surfactant was first evaluated against water control. Since no effect was obtained with these variations, we have routinely used the DMSO plus the surfactant sprayed leaves as control against artemisinin treated leaves and in figures the same has been depicted as DMSO (control). The room temperature Chl. a fluorescence technique was used to study the photosynthetic activity in intact leaf samples. The fast Chl. a transients (O-J-I-P) in millisecond (ms) time span was studied with plant efficiency analyzer (Handy PEA fluorimeter) following Strasser et al., while the relative thylakoid electron transport, membrane energization and carbon fixation activities were evaluated from slow fluorescence transients, obtained using FMS2 instrument (Hansatech) as per the detail outlined in Baker. The readouts from Handy PEA were analyzed using biolyzerhp3 software.

rice leaves [2] = test: Slow Chl. a fluorescence kinetics in leaves of artemisinin sprayed plants; format: in vivo, Rice (Oryza sativa var. Safari); details: dark adapted 20 min
Protocol: as §1

[3] = test system: whole chain (H2O to FeCN) electron flow in thylakoids; test: Whole chain (H2O to FeCN) electron flow in thylakoids isolated from leaves of sprayed plants; format: in vivo, Rice (Oryza sativa var. Safari)
Protocol: (§2) Twenty one day old rice plants were sprayed with artemisinin twice at a 24 h interval. One mililiter of 74.4 mM artemisinin in 1% (V/V) DMSO, 0.1% (V/V) TWEEN-20 was diluted 100 fold with water and used to treat 40 plants (∼1.86 µmol of artemisinin/plant). Control plants were sprayed with the same solution without artemisinin. The 4th (quaternary) leaf was harvested 20 h after the 2nd spray and used for all experiments. The individual effect of the surfactant and DMSO-plus-surfactant was first evaluated against water control. […]
(§3) Thylakoids were isolated from spinach and rice leaves following with some modifications. […] Chlorophyll concentration in methanolic extract was measured spectrophotometrically.
(§4) Photosystem II, PSI and whole chain (PSII plus PSI) catalyzed electron transport activities were measured as oxygen (O2) evolution or uptake in a Clarke type O2 electrode assembly (Hansatech) at 22±1°C using site-specific artificial electron acceptors, donors, and inhibitors, [26]. […] Phosphorylating electron transport was measured with addition of 1 mM ADP and 5 mM K2HPO4 (iP) to basal electron transport components (25 mM hepes-NaOH (pH-7.5), 100 mM sucrose, 5 mM MgCl2 and 20 µg Chl. ml^−1). […]

PSII = molecular target: T1, PSII (Oryza sativa subsp. japonica, UniProt P0C434); test: PSII (H2O to pBQ) catalyzed electron flow in thylakoids isolated from leaves of sprayed plants; format: in vivo, Rice (Oryza sativa var. Safari); details: thylakoids of treated rice leaves
T1 construct: Thylakoids were isolated from spinach and rice leaves; from tissue; host or cells: thylakoid membranes from the 4th leaf of 21-day-old rice plants
Protocol: as §2, §3, §4

PSI = PSI (DCIPH2 to MV) catalyzed electron flow in thylakoids isolated from leaves of sprayed plants; format: in vivo, Rice (Oryza sativa var. Safari); details: thylakoids of treated rice leaves
Protocol: as §2, §3, §4

[4] = test system: PQH2 pool (PSII catalyzed electron flow from water to DQ); test: Kinetics of DQ supported electron transport rate in thylakoids from treated leaves; format: in vivo; details: control versus treated thylakoids
Protocol: as §2, §3, §4

Chl. pigment synthesis = test: Chlorophyll quantification in sprayed plants; format: in vivo, Rice (Oryza sativa var. Safari); details: treated versus control leaves
Protocol: Twenty one day old rice plants were sprayed with artemisinin twice at a 24 h interval. One mililiter of 74.4 mM artemisinin in 1% (V/V) DMSO, 0.1% (V/V) TWEEN-20 was diluted 100 fold with water and used to treat 40 plants (∼1.86 µmol of artemisinin/plant). Control plants were sprayed with the same solution without artemisinin. The 4th (quaternary) leaf was harvested 20 h after the 2nd spray and used for all experiments. The individual effect of the surfactant and DMSO-plus-surfactant was first evaluated against water control. Since no effect was obtained with these variations, we have routinely used the DMSO plus the surfactant sprayed leaves as control against artemisinin treated leaves and in figures the same has been depicted as DMSO (control). Thylakoids were isolated from spinach and rice leaves following with some modifications. Leaves were homogenized in cold grinding buffer [50 mM tricine-NaOH (pH 7.5), 400 mM sucrose, 5 mM MgCl2 and 5 mM KCl]. The homogenate was filtered through Miracloth and the filtrate was centrifuged at 5000×g for 5 min. […] Chlorophyll concentration in methanolic extract was measured spectrophotometrically. Supplementary file pone.0038942.s002.doc: Figure S2 Chlorophyll quantification in plants sprayed with DMSO and artemisinin. […]

rice plant = test: Long term effect of artemisinin administration to rice plant; format: in vivo; details: 5 consecutive alternate day sprays
Protocol: Supplementary file pone.0038942.s005.doc: Figure S5 Long term effect of artemisinin administration to rice plant. The plants were treated with artemisinin for 5 consecutive alternate day sprays. […] (DOC) Click here for additional data file.

[5] = test system: lettuce and annual wormwood; set-up: method as in earlier work; details: 33 µM; cited from earlier work
[6] = test system: lettuce, redroot pigweed, pitted morning glory, annual wormwood and common purslane; set-up: method as in earlier work; details: 33 µM; cited from earlier work
yeast cells = test system: yeast cells; set-up: method as in PMID 16170412; details: 80 µM; cited from earlier work

For C[C@@H]1CC[C@H]2[C@@H](C)C(=O)O[C@@H]3O[C@@]4(C)CC[C@@H]1[C@]32OO4 [Artemisinin], the “inhibition of control activity (FeCN supported electron transport / O2 evolution)” value (spinach thylakoids; 744 µM artemisinin, basal (loosely coupled) thylakoids, relative to DMSO control) was 65–70%, the “artemisinin-mediated inhibition of electron transport” value (from here on “artemisinin-mediated inhibition”) (spinach thylakoids; phosphorylating condition (plus ADP and iP)) was 45–50% and the “artemisinin-mediated inhibition” value (spinach thylakoids; phosphorylating condition, in presence of NH4Cl) was 15–20%. For the same compound, the “artemisinin-mediated inhibition” value (spinach thylakoids; phosphorylating condition, with GS) was 20–25%, the “effect on electron flow from water to QA” value (rice leaves [1]; from DCMU (20 µM) sensitivity of the fluorescence induction curves) was “insensitive” and the “effect on O-J-I-P fluorescence transient” value (rice leaves [1]; leaves of sprayed rice plants) was “disappearance of the FI – FP transient”. For the same compound, the “Rfd (fluorescence decline ratio from 'p' to 't' level)” value (rice leaves [2]) was 0.08±0.006, the “reduction of FeCN supported whole chain electron transport rate as compared to control” value ([3]; thylakoids of treated rice leaves (~1.86 µmol/plant)) was 80–85% and the “inhibitory affect in loosely coupled (basal) versus chemically uncoupled (NH4Cl or GS) thylakoids” value ([3]; thylakoids of treated rice leaves, FeCN as acceptor) was “persistent to a comparable extent”. For the same compound, the “reduction in rate of pBQ supported PSII catalyzed electron transport” value (PSII) was 65–70%, the “reduction of PSI catalyzed electron flow from DCIPH2 to MV as compared to control” value (PSI) was 10–15% and the “DQ supported electron transport rate, times higher in the absence of artemisinin” value [4] was 5 times. The “effect on Chl. pigment synthesis (Chl. concentration)” value (Chl. pigment synthesis) was “no affect on the Chl. pigment synthesis”, the “long term effect on plants” value (rice plant) was “death of plant; also recorded: complete death of the plants” and the effect on germination [5] was “inhibited the germination”. The “effect on growth of roots and shoots” value [6] was “inhibited” and the “effect on growth of yeast cells” value (yeast cells) was “arrests the growth”.

Source: paper PMC3374801, “Artemisinin Inhibits Chloroplast Electron Transport Activity: Mode of Action” (PLoS ONE, 2012)
